# Measured values published in patent publication US20120045393A1 (priority 2009, published 2012).
# Non-standard residues stand in square brackets, D forms with d. Residues, ends and D or L forms follow the SMILES beside them. *: point of attachment. DOTA = O=C(O)CN1CCN(CC(=O)O)CCN(CC(=O)*)CCN(CC(=O)O)CC1; Bpa = N[C@@H](Cc1ccc(C(=O)c2ccccc2)cc1)C(=O)O; d2Nal = N[C@H](Cc1ccc2ccccc2c1)C(=O)O; 3Pal = N[C@@H](Cc1cccnc1)C(=O)O; azaGly = NNC(=O)O; Sar = CNCC(=O)O
# System: LHRH binding sites on human ovarian cancer cells (EFO-27)
# Conditions: not given
# 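Further: Cell-associated radioactivity on confluent EFO-27 monolayers in 96-well plates, measured by microplate scintillation counting.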
row,Compound,EC50
1,C[C@H](NC(=O)[C@H](CO)NC(=O)[C@H](Cc1c[nH]c2ccccc12)NC(=O)[C@H](CCCNC(=N)N)NC(=O)[C@@H](Cc1ccc2ccccc2c1)NC(=O)CN1CCN(CC(=O)O)CCN(CC(=O)O)CCN(CC(=O)O)CC1)C(=O)N[C@H](CCCNC(=N)N)C(=O)N[C@@H](Cc1c[nH]c2ccccc12)C(=O)N[C@@H](Cc1ccc(C(=O)c2ccccc2)cc1)C(=O)N1CCC[C@H]1C(=O)NNC(N)=O [compound 3028] ({DOTA}-[d2Nal]RWSA[dR]W[Bpa]P[azaGly]-NH2),1.09 µM
2,CC(=O)N[C@H](Cc1ccc2ccccc2c1)C(=O)N[C@@H](CCCNC(=N)N)C(=O)N[C@@H](Cc1c[nH]c2ccccc12)C(=O)N[C@@H](CO)C(=O)N[C@@H](Cc1c[nH]cn1)C(=O)N[C@H](CCCNC(=N)N)C(=O)N[C@@H](Cc1c[nH]c2ccccc12)C(=O)N[C@@H](Cc1ccc(C(=O)c2ccccc2)cc1)C(=O)N1CCC[C@H]1C(=O)NCCOCCNC(=O)CN1CCN(CC(=O)O)CCN(CC(=O)O)CCN(CC(=O)O)CC1 [compound 2992],0.47 ± 0.02 µM
3,CNCC(=O)N[C@@H](CCCNC(=N)N)C(=O)N[C@@H](Cc1c[nH]c2ccccc12)C(=O)N[C@@H](CO)C(=O)N[C@@H](Cc1c[nH]cn1)C(=O)N[C@H](CCCNC(=N)N)C(=O)N[C@@H](Cc1c[nH]c2ccccc12)C(=O)N[C@@H](Cc1ccc(C(=O)c2ccccc2)cc1)C(=O)N1CCC[C@H]1C(=O)NCCOCCN [compound 3007],0.22 µM
4,N=C(N)NCCC[C@H](NC(=O)[C@@H](Cc1ccc2ccccc2c1)NC(=O)CN1CCN(CC(=O)O)CCN(CC(=O)O)CCN(CC(=O)O)CC1)C(=O)N[C@@H](Cc1c[nH]c2ccccc12)C(=O)N[C@@H](CC(=O)O)C(=O)N[C@@H](Cc1c[nH]cn1)C(=O)N[C@H](CCCNC(=N)N)C(=O)N[C@@H](Cc1c[nH]c2ccccc12)C(=O)N[C@@H](Cc1ccc(C(=O)c2ccccc2)cc1)C(=O)N1CCC[C@H]1C(=O)NNC(N)=O [BRU-2954] ({DOTA}-[d2Nal]RWDH[dR]W[Bpa]P[azaGly]-NH2),4.2 µM
5,N=C(N)NCCC[C@H](NC(=O)[C@@H](Cc1ccc2ccccc2c1)NC(=O)CN1CCN(CC(=O)O)CCN(CC(=O)O)CCN(CC(=O)O)CC1)C(=O)N[C@@H](Cc1c[nH]c2ccccc12)C(=O)N[C@@H](CO)C(=O)N[C@@H](Cc1c[nH]cn1)C(=O)N[C@H](CCCNC(=N)N)C(=O)N[C@@H](Cc1c[nH]c2ccccc12)C(=O)N[C@@H](Cc1ccc(C(=O)c2ccccc2)cc1)C(=O)N1CCC[C@H]1C(=O)NC(=N)N [compound 2984],0.4 µM
6,CN(C(=O)CN1CCN(CC(=O)O)CCN(CC(=O)O)CCN(CC(=O)O)CC1)[C@H](Cc1ccc2ccccc2c1)C(=O)N[C@@H](CCCNC(=N)N)C(=O)N[C@@H](Cc1c[nH]c2ccccc12)C(=O)N[C@@H](CO)C(=O)N[C@@H](Cc1c[nH]cn1)C(=O)N[C@H](CCCNC(=N)N)C(=O)N[C@@H](Cc1c[nH]c2ccccc12)C(=O)N[C@@H](Cc1ccc(C(=O)c2ccccc2)cc1)C(=O)N1CCC[C@H]1C(=O)NNC(N)=O [BRU-2965],0.58 µM
7,CN(CC(=O)N[C@@H](Cc1cccnc1)C(=O)N[C@@H](Cc1c[nH]c2ccccc12)C(=O)N[C@@H](CO)C(=O)N[C@@H](Cc1c[nH]cn1)C(=O)N[C@H](CCCNC(=N)N)C(=O)N[C@@H](Cc1c[nH]c2ccccc12)C(=O)N[C@@H](Cc1ccc(C(=O)c2ccccc2)cc1)C(=O)N1CCC[C@H]1C(=O)NNC(N)=O)C(=O)CN1CCN(CC(=O)O)CCN(CC(=O)O)CCN(CC(=O)O)CC1 [BRU-2818] ({DOTA}-[Sar][3Pal]WSH[dR]W[Bpa]P[azaGly]-NH2),1.62 µM
8,CN(CC(=O)N[C@@H](Cc1c[nH]cn1)C(=O)N[C@@H](Cc1c[nH]c2ccccc12)C(=O)N[C@@H](CO)C(=O)N[C@@H](Cc1c[nH]cn1)C(=O)N[C@H](CCCNC(=N)N)C(=O)N[C@@H](Cc1c[nH]c2ccccc12)C(=O)N[C@@H](CCCNC(=N)N)C(=O)N1CCC[C@H]1C(=O)NNC(N)=O)C(=O)CN1CCN(CC(=O)O)CCN(CC(=O)O)CCN(CC(=O)O)CC1 [BRU-2723] (HELM PEPTIDE1{[O=C(O)CN1CCN(CC(=O)O)CCN(CC(=O)[*:2])CCN(CC(=O)O)CC1].[Sar].H.W.S.H.[dR].W.R.P.[O=C(NN[*:1])[*:2]].[am]}$$$$V2.0),2.83 µM
9,CNCC(=O)N[C@@H](CCCNC(=N)N)C(=O)N[C@@H](Cc1c[nH]c2ccccc12)C(=O)N[C@@H](CO)C(=O)N[C@@H](Cc1c[nH]cn1)C(=O)N[C@H](CCCNC(=N)N)C(=O)N[C@@H](Cc1c[nH]c2ccccc12)C(=O)N[C@@H](Cc1ccc(C(=O)c2ccccc2)cc1)C(=O)N1CCC[C@H]1C(=O)NCCOCCNC(=O)CN1CCN(CC(=O)O)CCN(CC(=O)O)CCN(CC(=O)O)CC1 [BRU-3039],0.23 to 0.5 µM
10,CN(CC(=O)N[C@@H](Cc1c[nH]cn1)C(=O)N[C@@H](Cc1c[nH]c2ccccc12)C(=O)N[C@@H](CO)C(=O)N[C@@H](Cc1c[nH]cn1)C(=O)N[C@H](CCCNC(=N)N)C(=O)N[C@@H](Cc1c[nH]c2ccccc12)C(=O)N[C@@H](Cc1cccnc1)C(=O)N1CCC[C@H]1C(=O)NNC(N)=O)C(=O)CN1CCN(CC(=O)O)CCN(CC(=O)O)CCN(CC(=O)O)CC1 [BRU-2726],17.4 µM
11,"CNCC(=O)N[C@@H](Cc1c[nH]cn1)C(=O)N[C@@H](Cc1c[nH]c2ccccc12)C(=O)N[C@@H](CO)C(=O)N[C@@H](Cc1c[nH]cn1)C(=O)N[C@H](CCCNC(=N)N)C(=O)N[C@@H](Cc1c[nH]c2ccccc12)C(=O)N[C@@H](Cc1ccc(O)cc1)C(=O)N1CCC[C@H]1C(=O)NNC(N)=O [BRU-2439, [Sar^1, Darg^6, azaGly^10]LHRH-II] (HELM PEPTIDE1{[Sar].H.W.S.H.[dR].W.Y.P.[O=C(NN[*:1])[*:2]].[am]}$$$$V2.0; N-terminus assumed)",0.25 µM
12,CN(CC(=O)N[C@@H](Cc1c[nH]cn1)C(=O)N[C@@H](Cc1c[nH]c2ccccc12)C(=O)N[C@@H](CO)C(=O)N[C@@H](Cc1c[nH]cn1)C(=O)N[C@H](CCCNC(=N)N)C(=O)N[C@@H](Cc1c[nH]c2ccccc12)C(=O)N[C@@H](Cc1ccc(C(=NO)c2ccccc2)cc1)C(=O)N1CCC[C@H]1C(=O)NNC(N)=O)C(=O)CN1CCN(CC(=O)O)CCN(CC(=O)O)CCN(CC(=O)O)CC1 [BRU-2907],1.9 µM
13,N=C(N)NCCC[C@H](NC(=O)[C@@H](Cc1ccc2ccccc2c1)NC(=O)CN1CCN(CC(=O)O)CCN(CC(=O)O)CCN(CC(=O)O)CC1)C(=O)N[C@@H](Cc1c[nH]c2ccccc12)C(=O)N[C@@H](CO)C(=O)N[C@@H](Cc1c[nH]cn1)C(=O)N[C@H](CCCNC(=N)N)C(=O)N[C@@H](Cc1c[nH]c2ccccc12)C(=O)N[C@@H](Cc1ccc(C(=O)c2ccccc2)cc1)C(=O)O [compound 3064] ({DOTA}-[d2Nal]RWSH[dR]W[Bpa]-OH; N-terminus assumed),0.67 µM
14,CC(C)C[C@H](NC(=O)[C@H](CO)NC(=O)[C@H](Cc1c[nH]c2ccccc12)NC(=O)[C@H](CCCNC(=N)N)NC(=O)[C@@H](Cc1ccc2ccccc2c1)NC(=O)CN1CCN(CC(=O)O)CCN(CC(=O)O)CCN(CC(=O)O)CC1)C(=O)N[C@H](CCCNC(=N)N)C(=O)N[C@@H](Cc1c[nH]c2ccccc12)C(=O)N[C@@H](Cc1ccc(C(=O)c2ccccc2)cc1)C(=O)N1CCC[C@H]1C(=O)NNC(N)=O [BRU-3029] ({DOTA}-[d2Nal]RWSL[dR]W[Bpa]P[azaGly]-NH2; C-terminus assumed),1.21 µM

# Same assay, conditions: BRU-2441 vs BRU-2439; BRU-2666 vs Sar1 analog; BRU-3072 vs Pro9 analog
row,Compound,times more potent than the comparator analog
1,"CNCC(=O)N[C@@H](Cc1c[nH]cn1)C(=O)N[C@@H](Cc1c[nH]c2ccccc12)C(=O)N[C@@H](CO)C(=O)N[C@@H](Cc1cnc[nH]1)C(=O)N[C@H](CCCNC(=N)N)C(=O)N[C@@H](Cc1c[nH]c2ccccc12)C(=O)N[C@@H](Cc1ccc(C(=O)c2ccccc2)cc1)C(=O)N1CCC[C@H]1C(=O)NNC(N)=O [BRU-2441, Sar-His-Trp-Ser-His-Darg-Trp-Bpa-Pro-azaGly-NH2]",~2

# Same assay, conditions: EFO-27 cells, competition with [125I-Tyr8]BRU-2477, 90 min
row,Compound,EC50
1,N=C(N)NCCC[C@H](NC(=O)[C@@H](Cc1ccc2ccccc2c1)NC(=O)CN1CCN(CC(=O)O)CCN(CC(=O)O)CCN(CC(=O)O)CC1)C(=O)N[C@@H](Cc1c[nH]c2ccccc12)C(=O)N[C@@H](CO)C(=O)N[C@@H](Cc1c[nH]cn1)C(=O)N[C@H](CCCNC(=N)N)C(=O)N[C@@H](Cc1c[nH]c2ccccc12)C(=O)N[C@@H](Cc1ccc(C(=O)c2ccccc2)cc1)C(=O)N1CCC[C@H]1C(=O)NCC(=O)NCCCCO [compound 2986],1.66 µM
2,N=C(N)NCCC[C@H](NC(=O)[C@@H](Cc1ccc2ccccc2c1)NC(=O)CN1CCN(CC(=O)O)CCN(CC(=O)O)CCN(CC(=O)O)CC1)C(=O)N[C@@H](Cc1c[nH]c2ccccc12)C(=O)N[C@@H](CO)C(=O)N[C@@H](Cc1c[nH]cn1)C(=O)N[C@H](CCCNC(=N)N)C(=O)N[C@@H](Cc1c[nH]c2ccccc12)C(=O)N[C@@H](Cc1ccc(C(=O)c2ccccc2)cc1)C(=O)N1CCC[C@H]1C(=O)NCC(=O)NCc1ccccc1 [compound 2988],0.65 µM
3,CN(CC(=O)N[C@@H](Cc1c[nH]cn1)C(=O)N[C@@H](Cc1c[nH]c2ccccc12)C(=O)N[C@@H](CO)C(=O)N[C@@H](Cc1c[nH]cn1)C(=O)N[C@H](CCCCNC(=N)N)C(=O)N[C@@H](Cc1c[nH]c2ccccc12)C(=O)N[C@@H](Cc1ccc(C(=O)c2ccccc2)cc1)C(=O)N1CCC[C@H]1C(=O)NNC(N)=O)C(=O)CN1CCN(CC(=O)O)CCN(CC(=O)O)CCN(CC(=O)O)CC1 [BRU-2893],2.6 µM

# Same assay, conditions: Table 13: linker between AA1 and DO3A10CM; EFO-27 cells
row,Compound,EC50
1,CN(CC(=O)N[C@@H](Cc1c[nH]cn1)C(=O)N[C@@H](Cc1c[nH]c2ccccc12)C(=O)N[C@@H](CO)C(=O)N[C@@H](Cc1c[nH]cn1)C(=O)N[C@H](CCCNC(=N)N)C(=O)N[C@@H](Cc1c[nH]c2ccccc12)C(=O)N[C@@H](Cc1ccc(C(=O)c2ccccc2)cc1)C(=O)N1CCC[C@H]1C(=O)NNC(N)=O)C(=O)CNC(=O)CN1CCN(CC(=O)O)CCN(CC(=O)O)CCN(CC(=O)O)CC1 [compound 2717],1.53 µM

# Same assay, conditions: ratio of EC50 to BRU-2813 (EC50=0.33 μM)
row,Compound,"binding potency, times lower than BRU-2813"
1,N=C(N)NCCC[C@H](NC(=O)[C@@H](Cc1ccc2ccccc2c1)NC(=O)CN1CCN(CC(=O)O)CCN(CC(=O)O)CCN(CC(=O)O)CC1)C(=O)N[C@@H](Cc1c[nH]c2ccccc12)C(=O)N[C@@H](CC(=O)O)C(=O)N[C@@H](Cc1c[nH]cn1)C(=O)N[C@H](CCCNC(=N)N)C(=O)N[C@@H](Cc1c[nH]c2ccccc12)C(=O)N[C@@H](Cc1ccc(C(=O)c2ccccc2)cc1)C(=O)N1CCC[C@H]1C(=O)NNC(N)=O [BRU-2954] ({DOTA}-[d2Nal]RWDH[dR]W[Bpa]P[azaGly]-NH2),~13
2,CN(C(=O)CN1CCN(CC(=O)O)CCN(CC(=O)O)CCN(CC(=O)O)CC1)[C@H](Cc1ccc2ccccc2c1)C(=O)N[C@@H](CCCNC(=N)N)C(=O)N[C@@H](Cc1c[nH]c2ccccc12)C(=O)N[C@@H](CO)C(=O)N[C@@H](Cc1c[nH]cn1)C(=O)N[C@H](CCCNC(=N)N)C(=O)N[C@@H](Cc1c[nH]c2ccccc12)C(=O)N[C@@H](Cc1ccc(C(=O)c2ccccc2)cc1)C(=O)N1CCC[C@H]1C(=O)NNC(N)=O [BRU-2965],~2

# Same assay, conditions: read-out: EC50 μM; Underivatized LHRH peptides and LHRH peptides with chelator on N-terminus; EFO-27 cells
row,Compound,EC50
1,N=C(N)NCCC[C@H](NC(=O)[C@@H](Cc1ccc2ccccc2c1)NC(=O)CC[C@H](CCCCN)NC(=O)CN1CCN(CC(=O)O)CCN(CC(=O)O)CCN(CC(=O)O)CC1)C(=O)N[C@@H](Cc1c[nH]c2ccccc12)C(=O)N[C@@H](CO)C(=O)N[C@@H](Cc1c[nH]cn1)C(=O)N[C@H](CCCNC(=N)N)C(=O)N[C@@H](Cc1c[nH]c2ccccc12)C(=O)N[C@@H](Cc1ccc(C(=O)c2ccccc2)cc1)C(=O)N1CCC[C@H]1C(=O)NCCOCCOCCN [BRU-3100],0.14 µM
